Results as given in ChEMBL document CHEMBL3758182, “Synthesis of Alocasin A” (J Nat Prod, 2015).
pIC50: −log10 of the molar value.

What was measured:
HepG2 = test: Antiproliferative activity against human HepG2 cells; format: functional, cell-based
[1] = Antiproliferative activity against human Hep2 cells; format: functional, cell-based; conditions: HEp-2

pIC50 (HepG2): 4.07
SMILES: Oc1ccc2[nH]cc(-c3cnc(-c4c[nH]c5ccc(O)cc45)cn3)c2c1
pIC50 [1]: 3.82
